# Source: PubChem BioAssay AID180 (DTP/NCI, 2004)
# Several values for one entry are separate records, joined by “and”; a condition that tells them apart may be missing. Equal values may be shown once.
# System: BDF1 mice, Adenocarcinoma 755 s.c., tumor weight T/C
# Assay: NCI In Vivo Anticancer Drug Screen. Data for tumor model Adenocarcinoma 755 (subcutaneous) in B6D2F1 (BDF1) mice
# Settings: endpoint: mean tumor weight, higher = larger tumour
# Method in brief: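 Tumor-bearing mice receive test compound while controls get vehicle alone. Antitumor effect is scored from survival or tumor dimensions as a T/C quotient.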
# [1] = dose: 50.0 mg/kg/injection, schedule: Q01DX011 (ip), vehicle: carboxymethylcellulose (CMC)
# [2] = dose: 3.12 mg/kg/injection, schedule: Q01DX011 (ip), vehicle: other
# [3] = dose: 6.25 mg/kg/injection, schedule: Q01DX011 (ip), vehicle: other
# [4] = dose: 12.5 mg/kg/injection, schedule: Q01DX011 (ip), vehicle: other
# [5] = dose: 4.0 mg/kg/injection, schedule: Q01DX011 (ip), vehicle: carboxymethylcellulose (CMC)
# [6] = dose: 8.0 mg/kg/injection, schedule: Q01DX011 (ip), vehicle: carboxymethylcellulose (CMC)
# [7] = dose: 30.0 mg/kg/injection, schedule: Q01DX011 (ip), vehicle: carboxymethylcellulose (CMC)
smiles,measurement,setting,value
OCn1cccn1,T/C,"dose: 20.0 mg/kg/injection, schedule: Q01DX011 (ip), vehicle: other",68 % of control
same,T/C,"dose: 20.0 mg/kg/injection, schedule: Q01DX011 (ip), vehicle: saline",89 % of control
same,T/C,"dose: 40.0 mg/kg/injection, schedule: Q01DX011 (ip), vehicle: other",23 % of control
same,T/C,"dose: 40.0 mg/kg/injection, schedule: Q01DX011 (ip), vehicle: saline",45 % of control
same,T/C,"dose: 80.0 mg/kg/injection, schedule: Q01DX011 (ip), vehicle: other",2 % of control
same,T/C,"dose: 80.0 mg/kg/injection, schedule: Q01DX011 (ip), vehicle: saline",27 % of control
same,T/C,"dose: 160.0 mg/kg/injection, schedule: Q01DX011 (ip), vehicle: saline",2 % of control
CC1CCN(/N=N/c2nc3c([nH]2)c(=O)n(C)c(=O)n3C)CC1,T/C,"dose: 25.0 mg/kg/injection, schedule: Q01DX011 (ip), vehicle: methylcellulose (MC)",41 % of control
same,T/C,"dose: 75.0 mg/kg/injection, schedule: Q01DX011 (ip), vehicle: methylcellulose (MC)",57 % of control
C[C@]12CCCC[C@@H]1CC[C@@H]1[C@@H]2[C@@H](O)C[C@]2(C)[C@@H](N)CC[C@@H]12,T/C,"dose: 22.0 mg/kg/injection, schedule: Q01DX011 (sc), vehicle: steriod suspending solution",106 % of control
same,T/C,"dose: 44.0 mg/kg/injection, schedule: Q01DX011 (sc), vehicle: steriod suspending solution",74 % of control
CC(=O)[C@H]1CC[C@H]2[C@@H]3C[C@H](C)C4=CC(=O)CC[C@]4(C)[C@H]3[C@@H](O)C[C@]12C,T/C,"dose: 50.0 mg/kg/injection, schedule: Q01DX011 (sc), vehicle: steriod suspending solution",56 % of control and 63 % of control
same,T/C,"dose: 100.0 mg/kg/injection, schedule: Q01DX011 (sc), vehicle: steriod suspending solution",59 % of control and 60 % of control
same,T/C,"dose: 200.0 mg/kg/injection, schedule: Q01DX011 (sc), vehicle: steriod suspending solution",15 % of control and 34 % of control
Cc1nc(C(N)=O)nc2ccccc12,T/C,"dose: 31.25 mg/kg/injection, schedule: Q01DX011 (ip), vehicle: methylcellulose (MC)",102 % of control
same,T/C,[1],99 % of control
same,T/C,"dose: 100.0 mg/kg/injection, schedule: Q01DX011 (ip), vehicle: carboxymethylcellulose (CMC)",80 % of control
same,T/C,"dose: 200.0 mg/kg/injection, schedule: Q01DX011 (ip), vehicle: carboxymethylcellulose (CMC)",58 % of control
same,T/C,"dose: 400.0 mg/kg/injection, schedule: Q01DX011 (ip), vehicle: carboxymethylcellulose (CMC)",32 % of control
CCCC(=O)OCC1OC(n2cnc3c(=S)nc[nH]c32)C(OC(=O)CCC)C1OC(=O)CCC (stereo not given),T/C,"dose: 3.0 mg/kg/injection, schedule: Q01DX011 (ip), vehicle: other",48 % of control
same,T/C,[2],75 % of control
same,T/C,"dose: 6.0 mg/kg/injection, schedule: Q01DX011 (ip), vehicle: other",16 % of control
same,T/C,[3],13 % of control
same,T/C,"dose: 12.0 mg/kg/injection, schedule: Q01DX011 (ip), vehicle: other",6 % of control
same,T/C,[4],4 % of control
CN(C)[C@@H]1C(=O)C(C(=O)NCNc2nc(=S)c3[nH]cnc3[nH]2)=C(O)[C@@]2(O)C(=O)C3=C(O)c4c(O)cccc4[C@@](C)(O)[C@H]3C[C@@H]12,T/C,[5],52 % of control
same,T/C,[6],26 % of control
same,T/C,"dose: 15.0 mg/kg/injection, schedule: Q01DX011 (ip), vehicle: carboxymethylcellulose (CMC)",2 % of control
same,T/C,[7],1 % of control
same,T/C,[1],1 % of control
Nc1cc(C(=O)O)nc(N)n1,T/C,"dose: 31.0 mg/kg/injection, schedule: Q01DX011 (ip), vehicle: methylcellulose (MC)",68 % of control
CC(=O)N(c1ccccc1)c1ccccc1,T/C,[2],83 % of control
same,T/C,[3],92 % of control
same,T/C,[4],80 % of control
same,T/C,"dose: 25.0 mg/kg/injection, schedule: Q01DX011 (ip), vehicle: other",97 % of control
Cn1c(=O)c2c(nc(N/N=C/c3ccccc3Br)n2C)n(C)c1=O,T/C,[7],96 % of control
same,T/C,"dose: 120.0 mg/kg/injection, schedule: Q01DX011 (ip), vehicle: carboxymethylcellulose (CMC)",101 % of control
same,T/C,"dose: 240.0 mg/kg/injection, schedule: Q01DX011 (ip), vehicle: carboxymethylcellulose (CMC)",89 % of control
CS(=O)(=O)OCCCCCCCCCOS(C)(=O)=O,T/C,"dose: 2.0 mg/kg/injection, schedule: Q01DX011 (ip), vehicle: carboxymethylcellulose (CMC)",35 % of control
same,T/C,[5],49 % of control
same,T/C,[6],54 % of control
same,T/C,"dose: 16.0 mg/kg/injection, schedule: Q01DX011 (ip), vehicle: carboxymethylcellulose (CMC)",26 % of control
same,T/C,"dose: 28.0 mg/kg/injection, schedule: Q01DX011 (ip), vehicle: carboxymethylcellulose (CMC)",7 % of control
C=C1CN(CC)CCO1,T/C,"dose: 50.0 mg/kg/injection, schedule: Q01DX011 (ip), vehicle: other",73 % of control
same,T/C,"dose: 100.0 mg/kg/injection, schedule: Q01DX011 (ip), vehicle: other",72 % of control
